Experimental data reported in patent US11415579B2, “Assay for measuring a rate of reaction between a target and a ligand candidate” (Imperial College Innovations Ltd., priority 2016, dated 2022).

Experiments:
Cdk2(S181C) (C177A) = biological target: T1, Cdk2(S181C) (C177A) (Homo sapiens, UniProt P24941, C177A/S181C); assay: Kinetic thiol consumption assay with Cdk2 mutant S181C; assay type: binding; design: key to Rate enhancement, Cdk2 S181C: rate constant with Cdk2 ÷ rate constant with model thiol (fold); conditions: additional mutation C177A; for Rate constant with Cdk2 S181C: Protein: Cdk2, cysteine position S181C, in h^-1
T1 construct: poly-histidine; made in house; host or cells: E. coli
Procedure, shortened: (§1)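 His-tagged single-surface-cysteine Cdk2 mutants (C177A background) from E. coli, 5 μM in degassed phosphate buffer pH 8, pre-treated with immobilized TCEP beads. Fluorescence (ex/em 380/470 nm) read after 1 h at room temperature, normalized to DMSO/thiol-only control; first-order decay fits gave rate constants, divided by model-thiol rate for rate enhancement.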

Cdk2[C177A, F80C, K278C] = biological target: T2, Cdk2[C177A, F80C, K278C] (Homo sapiens, UniProt P24941, C177A/F80C/K278C); assay: Kinetic thiol consumption assay with mutant Cdk2 as model thiol; assay type: binding; design: unit not given here; conditions: 500 μM ligand, 5 μM thiol, phosphate buffer pH 8
T2 construct: poly-histidine; made in house; host or cells: E. coli
Procedure, shortened: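 Model thiol: His-tagged human Cdk2 C177A/F80C/K278C (two engineered surface cysteines), E. coli-expressed, 5 μM in degassed phosphate buffer pH 8 with immobilized TCEP beads (2% v/v). Fluorescence (ex/em 380/470 nm) followed over time at room temperature, normalized to DMSO/thiol control. First-order decay fit gives rate constants.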

Cdk2(R122C) (C177A) = biological target: T3, Cdk2(R122C) (C177A) (Homo sapiens, UniProt P24941, C177A/R122C); assay: Kinetic thiol consumption assay with Cdk2 mutant R122C; assay type: binding; design: key to Rate enhancement, Cdk2 R122C: rate constant with Cdk2 ÷ rate constant with model thiol (fold); conditions: additional mutation C177A; for Rate constant with Cdk2 R122C: Protein: Cdk2, cysteine position R122C, in h-1
T3 construct: poly-histidine; made in house; host or cells: E. coli
Procedure, shortened: as §1

[1] = Kinetic thiol consumption assay with model thiol glutathione; assay type: physicochemical; design: Rate constant with glutathione (k(GSH)): unit not given here; conditions: for Rate constant with glutathione (k(GSH)): 500 μM ligand, 5 μM thiol, phosphate buffer pH 8; for Rate constant with Glutathione: Protein: Glutathione, cysteine position NA, in h-1
Procedure, shortened: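 Rate constants for acrylamide reaction with 5 μM glutathione come from first-order exponential fits of normalized fluorescence decay (ex 380, em 470 nm). Reactions run in degassed phosphate buffer at pH 8 containing TCEP beads, room temperature.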

[2] = biological target: T4, human cyclin-dependent kinase 2 (Cdk2) (Homo sapiens, UniProt P24941); assay: Kinetic thiol consumption assay with wild type Cdk2 (C177); assay type: binding; design: key to Rate enhancement, Cdk2 WT: k(Cdk2) divided by k(model thiol); Rate constant with Cdk2 (k(Cdk2)): unit not given here; conditions: for Rate constant with Cdk2 (k(Cdk2)): 500 μM ligand, 5 μM thiol, phosphate buffer pH 8; for Rate enhancement, Cdk2 WT: no additional mutations; for Rate constant with Cdk2 WT: Protein: Cdk2, cysteine position WT, in h^-1; for k(Cdk2)/k(Cdk2_mut) rate enhancement: model thiol Cdk2[C177A, F80C, K278C]; for k(Cdk2)/k(GSH) rate enhancement: model thiol glutathione
T4 construct: poly-histidine; made in house; host or cells: E. coli
Procedure, shortened: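 His-tagged human Cdk2 (single surface cysteine C177), expressed in E. coli, or a model thiol at 5 μM in degassed phosphate buffer pH 8 was pre-treated with immobilized TCEP beads (2% v/v) before acrylamide addition. Fluorescence (ex/em 380/470 nm) was read after 1 h at room temperature, normalized to DMSO/thiol-only control and plotted versus time.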

Cdk2(C177A, F80C) = biological target: T5, Cdk2(C177A, F80C) (Homo sapiens, UniProt P24941, C177A/F80C); assay: Kinetic thiol consumption assay with Cdk2 mutant F80C, incl. kobs versus concentration (Kd, k2); assay type: binding; design: key to Rate enhancement, Cdk2 F80C: Cdk2 rate constant divided by model-thiol rate constant; conditions: additional mutation C177A; for Rate constant with Cdk2 F80C: Protein: Cdk2, cysteine position F80C, in h^-1
T5 construct: poly-histidine; made in house; host or cells: E. coli
Procedure, shortened: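 His-tagged Cdk2(C177A/F80C) from E. coli or model thiol, 5 μM in degassed phosphate buffer pH 8 with TCEP beads, reacted with acrylamide ligands; fluorescence (ex/em 380/470 nm) normalized to DMSO control and fitted to first-order decay for kobs. Kd and k2 obtained from hyperbolic fit of kobs versus ligand concentration.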

Cdk2(S276C) (C177A) = biological target: T6, Cdk2(S276C) (C177A) (Homo sapiens, UniProt P24941, C177A/S276C); assay: Kinetic thiol consumption assay with Cdk2 mutant S276C; assay type: binding; design: key to Rate enhancement, Cdk2 S276C: rate constant with Cdk2 ÷ rate constant with model thiol (fold); conditions: additional mutation C177A; for Rate constant with Cdk2 S276C: Protein: Cdk2, cysteine position S276C, in h^-1
T6 construct: poly-histidine; made in house; host or cells: E. coli
Procedure, shortened: as §1

Cdk2(T182C) (C177A) = biological target: T7, Cdk2(T182C) (C177A) (Homo sapiens, UniProt P24941, C177A/T182C); assay: Kinetic thiol consumption assay with Cdk2 mutant T182C; assay type: binding; design: key to Rate enhancement, Cdk2 T182C: rate constant with Cdk2 ÷ rate constant with model thiol (fold); conditions: additional mutation C177A; for Rate constant with Cdk2 T182C: Protein: Cdk2, cysteine position T182C, in h^-1
T7 construct: poly-histidine; made in house; host or cells: E. coli
Procedure, shortened: as §1

Cdk2(H71C) (C177A) = biological target: T8, Cdk2(H71C) (C177A) (Homo sapiens, UniProt P24941, C177A/H71C); assay: Kinetic thiol consumption assay with Cdk2 mutant H71C; assay type: binding; design: key to Rate enhancement, Cdk2 H71C: rate constant with Cdk2 ÷ rate constant with model thiol (fold); conditions: additional mutation C177A; for Rate constant with Cdk2 H71C: Protein: Cdk2, cysteine position H71C, in h^-1
T8 construct: poly-histidine; made in house; host or cells: E. coli
Procedure, shortened: as §1

Cdk2(N272C) (C177A) = biological target: T9, Cdk2(N272C) (C177A) (Homo sapiens, UniProt P24941, C177A/N272C); assay: Kinetic thiol consumption assay with Cdk2 mutant N272C; assay type: binding; design: key to Rate enhancement, Cdk2 N272: rate constant with Cdk2 ÷ rate constant with model thiol (fold); conditions: for Rate enhancement, Cdk2 N272: Cdk2 N272, additional mutation C177A; for Rate constant with Cdk2 N272C: Protein: Cdk2, cysteine position N272C, additional mutation C177A, in h^-1
T9 construct: poly-histidine; made in house; host or cells: E. coli
Procedure, shortened: as §1

SMILES | Rate enhancement, Cdk2 S181C (Cdk2(S181C) (C177A)) | Rate constant with Cdk2 S181C (Cdk2(S181C) (C177A)) | Rate constant with Cdk2[C177A, F80C, K278C] (k(Cdk2_mut)) (Cdk2[C177A, F80C, K278C]) | Rate enhancement, Cdk2 R122C (Cdk2(R122C) (C177A)) | Rate constant with Cdk2 R122C (Cdk2(R122C) (C177A)) | Rate constant with glutathione (k(GSH)) [1] | Rate constant with Glutathione [1] | Rate constant with Cdk2 (k(Cdk2)) [2] | Rate enhancement, Cdk2 WT [2] | Rate constant with Cdk2 WT [2] | k(Cdk2)/k(Cdk2_mut) rate enhancement [2] | k(Cdk2)/k(GSH) rate enhancement [2] | Rate enhancement, Cdk2 F80C (Cdk2(C177A, F80C)) | Rate constant with Cdk2 F80C (Cdk2(C177A, F80C)) | Rate enhancement, Cdk2 S276C (Cdk2(S276C) (C177A)) | Rate constant with Cdk2 S276C (Cdk2(S276C) (C177A)) | Rate enhancement, Cdk2 T182C (Cdk2(T182C) (C177A)) | Rate constant with Cdk2 T182C (Cdk2(T182C) (C177A)) | Rate enhancement, Cdk2 H71C (Cdk2(H71C) (C177A)) | Rate enhancement, Cdk2 N272 (Cdk2(N272C) (C177A)) | further results
C=CC(=O)N(Cc1ccc2c(c1)CCO2)C1CCCC1 [CA-184] | 10.57 | 0.3106 | 0.07366 | 0.7583 | 0.02228 | 0.01856 | 0.02938 | 0.2235 | 7.607 | 0.2235 | 3.034 | 12.04 | 2.208 | 0.06488 | 20.94 | 0.6153 | 11.73 | 0.3446 | 7.662 | 7.192 | hit classification, Example 1 ([2]; hits defined as kCdk2/kGSH>5.8 (3 standard deviations over the mean)): hit fragments; Rate constant with Cdk2 H71C (Cdk2(H71C) (C177A)): 0.2251; Rate constant with Cdk2 N272C (Cdk2(N272C) (C177A)): 0.2113
C=CC(=O)N1CCn2cccc2C1c1ccccc1 (centres unmarked) [CA-187] | 0.2036 | 0.00897 | 0.01772 | 0.4465 | 0.01967 | 0.04403 | 0.04405 | 0.02811 | 0.6381 | 0.02811 | 1.586 | 0.6384 | 0.3805 | 0.01676 | 1.852 | 0.08156 | 4.62 | 0.2035 | 1.456 | 0.7126 | Rate constant with Cdk2 H71C (Cdk2(H71C) (C177A)): 0.06414; Rate constant with Cdk2 N272C (Cdk2(N272C) (C177A)): 0.03139
C=CC(=O)N1CC2(CCC2)c2c(F)cccc21 [CA-188] | 0.2482 | 0.04931 | 1.161 | 0.08933 | 0.01775 | 0.1903 | 0.1987 | 0.55 | 2.768 | 0.55 | 0.4737 | 2.89 | 2.57 | 0.5106 | 0.03818 | 0.007587 | 1.883 | 0.3741 | 1.537 | 0.3173 | Rate constant with Cdk2 H71C (Cdk2(H71C) (C177A)): 0.3055; Rate constant with Cdk2 N272C (Cdk2(N272C) (C177A)): 0.06304
C=CC(=O)N1CC2CCN(Cc3ccccc3)C2C1 (centres unmarked) [CA-190] | 0.2548 | 0.003565 | 0.00305 | 0.501 | 0.007009 | 0.01268 | 0.01399 | 0.00347 | 0.248 | 0.003469 | 1.136 | 0.2735 | 0.3783 | 0.005293 | 0.3527 | 0.004934 | 0.8134 | 0.01138 | 0 | 0.2334 | Rate constant with Cdk2 N272C (Cdk2(N272C) (C177A)): 0.003265
C=CC(=O)N(CCCN1CCOCC1)Cc1ccncc1 [CA-192] | 0.1475 | 0.00198 | 0.00447 | 0.136 | 0.001825 | 0.00676 | 0.01342 | 0.00341 | 0.4352 | 0.00584 | 0.7625 | 0.5048 | 0.1157 | 0.001553 | 0.08092 | 0.001086 | 0.4571 | 0.006134 | 0.218 | 0.3716 | Rate constant with Cdk2 H71C (Cdk2(H71C) (C177A)): 0.002926; Rate constant with Cdk2 N272C (Cdk2(N272C) (C177A)): 0.004987
